The target of experiment [1] is T1, human recombinant Bcl-2 protein (Homo sapiens, UniProt P10415).
T1 construct: purchased Beijing Yigiao Shenzhou Biotechnology Co., Ltd. 10195-HOSE
Briefly: Fluorescence polarization test for inhibition of BCL-2 binding to FITC-BIM. To be noted: 5 nM BCL-2, 5 nM FITC-BIM, read-out: FP BCL-2 IC50. The method, then:
Fluorescence polarization assay was used to evaluate the effect of the compounds of the present invention on the biological activity of BCL-2.
The effects of the compounds on the biological activity of BCL-2 were evaluated by determining the effects of the compounds on the binding activity of BCL-2 to leukemia pro-apoptotic protein (BIM) using an affinity assay method based on the principle of fluorescence polarization. The reaction buffer comprises the following components: PBS (pH 7.4, 3 mM Na2HPO4, 155 mM NaCl, 1 mM KH2PO4), 1 mM DTT; human recombinant Bcl-2 protein (Item No. 10195-HOSE) (purchased from Beijing Yigiao Shenzhou Biotechnology Co., Ltd.) was diluted to 5 nM with the reaction buffer; FITC-labeled BIM polypeptide (purchased from Nanjing GenScript Biotechnology Co., Ltd.) was diluted to 5 nM with the reaction buffer.
The compounds were dissolved in 100% DMSO and diluted to 0.1, 1, 10 μM, followed by 4-fold serial dilutions with DMSO to a minimum concentration of 0.0061, 0.061, 0.61 nM, each concentration point was further diluted 50-fold with the reaction buffer.
3 μL of solution containing the compound and 12 μL of solution containing BCL-2 were added to the black 384-well assay plate, mixed well, and incubated at room temperature for 15 minutes. Subsequently, 15 μL of FITC-BIM solution was added, and the reaction mixture was incubated at room temperature for 30 minutes in dark place, and then the fluorescence polarization was detected immediately on an Envision multi-mode reader (Perkin Elmer), with 480 nm as the excitation wavelength and 535 nm as the emission wavelength. In this experiment, the group without BCL-2 protein was used as a negative control (100% inhibition), and the group with BCL-2 protein but without the compound was used as a positive control (0% inhibition). The inhibition percentage of the compound to the affinity of BCL-2 can be calculated using the following equation: […]
(§1) The IC50 of the compound was calculated from 8 concentration points using XLfit (ID Business Solutions Ltd., UK) software by the following equation:
(§2) Y=Bottom+(Top−Bottom)/(1+10^((log IC50−X)*slope factor))
(§3) where Y is the inhibition percentage, X is the logarithm of the concentration of the compound to be tested, Bottom is the maximum inhibition percentage, Top is the minimum inhibition percentage, and slope factor is the slope coefficient of the curve.
In general terms: Polarisation of emitted light reports the rotation of a fluorescent probe.

Experiment [2] concerns the target T2, human recombinant Bcl-XL protein (Homo sapiens, UniProt Q07817).
T2 construct: purchased Beijing Yiqiao Shenzhou Biotechnology Co., Ltd. 10455-H0SE
The experiment in a line: Fluorescence polarization test for inhibition of BCL-XL binding to FITC-BIM. To be noted: 10 nM BCL-XL, 10 nM FITC-BIM, read-out: FP BCL-XL IC50. As for the experimental part: Fluorescence polarization assay was used to evaluate the effect of the compounds of the present invention on the biological activity of BCL-XL.
The effects of the compounds on the biological activity of BCL-XL were evaluated by detecting the effects of the compounds on the binding activity of BCL-XL to BIM using an affinity assay method based on the principle of fluorescence polarization. The reaction buffer contains the following components: PBS (pH 7.4, 3 mM Na2HPO4, 155 mM NaCl, 1 mM KH2PO4), 1 mM DTT; human recombinant Bcl-XL protein (Item No. 10455-H0SE) (purchased from Beijing Yiqiao Shenzhou Biotechnology Co., Ltd.) was diluted to 10 nM with reaction buffer; FITC-labeled BIM polypeptide (purchased from Nanjing GenScript Biotechnology Co., Ltd) was diluted to 10 nM with reaction buffer.
The compounds were dissolved in 100% DMSO and diluted to 1 μM, followed by 4-fold serial dilutions in DMSO to a minimum concentration of 0.061 nM, each concentration point was further diluted 50-fold with reaction buffer.
3 μL of solution containing the compound and 12 μL of solution containing BCL-XL were added to the black 384-well assay plate, mixed well, and incubated at room temperature for 15 minutes. Subsequently, 15 μL of FITC-BIM solution was added, and the reaction mixture was incubated at room temperature for 30 minutes in the dark place, and then the fluorescence polarization was detected immediately on an Envision multi-plate reader (Perkin Elmer), with 480 nm as the excitation wavelength and 535 nm as the emission wavelength. In this experiment, the group without BCL-XL protein was used as a negative control (100% inhibition), and the group with BCL-XL protein but without the compound was added as a positive control (0% inhibition). The inhibition percentage of the compound to the affinity of BCL-XL can be calculated using the following equation: […]
as §1, §2, §3

Experiment [3] has as its system RS4;11 cells (acute lymphoblastic leukemia cells). The experiment in a line: RS4;11 cell proliferation, CellTilter-Glo luminescence cell viability assay. Type of experiment: cell-based. The note with it: CTG readout after 48 hours. As for the experimental part:
The effects of the compounds of the present invention on the proliferation of RS4;11 cells were evaluated using a luminescence cell viability assay.
A CellTilter-Glo (CTG) Assay Kit is used to detect ATP, a key indicator of the metabolism of living cells, through a unique, highly sensitive and stable luciferase. The luminescent signal generated in the assay is proportional to the number of the viable cells in the medium, therefore the cell proliferation of RS4;11 can be determined.
CellTilter-Glo reagent (Promega, G7572) is composed of CellTilter-Glo lyophilized powder and CellTilter-Glo buffer, and the lyophilized powder can be dissolved in the buffer for use.
RS4;11 cells (ATCC, CRL-1873) were cultured in RPMI1640 complete medium (Thermofisher, 72400-047) containing 10% FBS (GBICO, 10099-141) and 100 units/ml penicillin-streptomycin solution (Thermofisher, 15140122)), when the cells covered 80-90% in the culture vessel, they were digested and dispersed with 0.25% trypsin (containing EDTA) (Thermofisher, 25200056) and then planted in a white 384-well plate (Thermofisher, 164610), and then the 384-well plate was incubated overnight in a 37° C., 5% CO2 incubator. Compounds were dissolved in 100% DMSO and diluted to […], followed by 4-fold serial dilutions with DMSO to a minimum concentration of 0.061 μM, and each concentration point was further diluted 50-fold with FBS-free RPMI1640 medium. If the IC50 of the compound is very low, the initial concentration of the compound can be reduced. After overnight, 3 μL of the compound diluted in the medium was added to each well, and the mixture was gently centrifuged to mix. The group without cells was used as a negative control (100% inhibition), and the group with 0.2% DMSO was used as a positive control (0% inhibition). The 384-well plate was placed in a 37° C., 5% CO2 incubator for further cultivation. After 48 hours, the plate was taken out and equilibrated to room temperature. 15 μl of CTG reagent was added to each well, the plate was shaken gently for 3 minutes to make sure that the cell lysis was carried out thoroughly, then the plate was kept for 10 minutes to stabilize the luminescence signal, then the luminescence signal was read by EnVision (Perkin Elmer).
The inhibition percentage of the compounds to RS4;11 cell proliferation can be calculated using the following equation:
Inhibition Percentage=100−100*(signal compound-signal negative control)/(signal positive control-signal negative control)
as §1
Y=Bottom+(Top−Bottom)/(1+10^((Log IC50−X)*slope factor))
wherein, Y is the inhibition percentage, Bottom is the bottom plateau of the curve (the bottom plateau value of the S-shaped curve), Top is the top plateau of the curve (the top plateau value of the S-shaped curve), and X is the logarithm of the concentration of the compound to be tested.

T2 sequence (Q07817 whole entry): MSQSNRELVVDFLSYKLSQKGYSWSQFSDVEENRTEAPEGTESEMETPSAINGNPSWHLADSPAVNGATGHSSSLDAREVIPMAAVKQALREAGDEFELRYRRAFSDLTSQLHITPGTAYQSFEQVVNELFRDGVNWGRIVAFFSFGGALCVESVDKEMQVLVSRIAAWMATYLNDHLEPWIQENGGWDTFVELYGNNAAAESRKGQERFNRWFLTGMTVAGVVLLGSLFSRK
T1 sequence (P10415 whole entry): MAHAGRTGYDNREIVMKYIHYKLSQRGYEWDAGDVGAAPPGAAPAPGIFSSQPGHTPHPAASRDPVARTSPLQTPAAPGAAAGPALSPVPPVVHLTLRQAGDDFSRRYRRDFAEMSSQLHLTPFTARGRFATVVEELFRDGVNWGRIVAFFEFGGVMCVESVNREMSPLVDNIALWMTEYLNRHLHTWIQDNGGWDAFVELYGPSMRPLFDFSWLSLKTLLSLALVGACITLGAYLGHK

A word on the IC50: it is the midpoint of a concentration-inhibition curve. “2-((1H-Pyrrolo[2,3-b]pyridin-5-yl) oxy)-4-((R)-4-(((S)-4′-chloro-5- methyl-3,4,5,6-tetrahydro-[1,1′-biphenyl]- 2-yl)methyl)-2-methylpiperazn-1- yl)-N-((3-nitro-4-((((S)-4-(3-oxetan yl)morpholin-2-yl)methyl)amino) phenyl)sulfonyl)benzamide [Example 18]”: the IC50 in experiment [1] is 1.32 nM; in experiment [2], over 1000 nM; in experiment [3] it was 2.4 nM.

`C[C@@H]1CN(c2ccc(C(=O)NS(=O)(=O)c3cc(F)c(NCC4CCOCC4)c([N+](=O)[O-])c3)c(Oc3cnc4[nH]ccc4c3)c2)CCN1CC1=C(c2ccc(Cl)cc2)CC(C)(C)CC1` [Example 1, (R)-2-((1H-pyrrolo[2,3-b]pyridin-5-yl)oxy)-4-(4-((4′-chloro-5,5-dimethyl-3,4,5,6-tetrahydro-[1,1′-biphenyl]-2-yl)methyl)-3-methylpiperazin-1-yl)-N-((3-fluoro-5-nitro-4-(((tetrahydro-2H-pyran-4-yl)methyl)amino)phenyl)sulfonyl)benzamide]: the IC50 is 2.05 nM in experiment [1]; over 1000 nM in experiment [2]; 4.73 nM in experiment [3] (Homo sapiens, RS4-11).

Consider `C[C@@H]1CN(c2ccc(C(=O)NS(=O)(=O)c3ccc(NCC4CCOCC4)c([N+](=O)[O-])c3)c(Oc3cnc4[nH]ccc4c3)c2)CCN1CC1=C(c2ccc(Cl)cc2)CC(C)(C)CC1` [Example 2, (R)-2-((1H-pyrrolo[2,3-b]pyridin-5-yl)oxy)-4-(4-((4′-chloro-5,5-dimethyl-3,4,5,6-tetrahydro-[1,1′-biphenyl]-2-yl)methyl)-3-methylpiperazin-1-yl)-N-((3-nitro-4-(((tetrahydro-2H-pyran-4-yl)methyl)amino)phenyl)sulfonyl) benzamide], for which the IC50 was 2.56 nM in experiment [1]; over 1000 nM in experiment [2]; 11.1 nM in experiment [3] (Homo sapiens, RS4-11).

In the case of `C[C@@H]1CN(c2ccc(C(=O)NS(=O)(=O)c3ccc(NCC4CCN(C5COC5)CC4)c([N+](=O)[O-])c3)c(Oc3cnc4[nH]ccc4c3)c2)CCN1CC1=C(c2ccc(Cl)cc2)CC(C)(C)CC1` [Example 3, (R)-2-((1H-pyrrolo[2,3-b]pyridin-5-yl)oxy)-4-(4-((4′-chloro-5,5-dimethyl-3,4,5,6-tetrahydro-[1,1′-biphenyl]-2-yl)methyl)-3-methylpiperazin-1-yl)-N-((3--nitro-4(((1-(3-oxetanyl)piperidin-4-yl)methyl)amino)phenyl)sulfonyl) benzamide], the IC50 in experiment [1] was 3.06 nM; in experiment [2], over 1000 nM; in experiment [3] (Homo sapiens, RS4-11), 6.4 nM.

Take `C[C@@H]1CN(c2ccc(C(=O)NS(=O)(=O)c3cc(F)c(NCC4CCN(C5COC5)CC4)c([N+](=O)[O-])c3)c(Oc3cnc4[nH]ccc4c3)c2)CCN1CC1=C(c2ccc(Cl)cc2)CC(C)(C)CC1` [Example 4, (R)-2-((1H-pyrrolo[2,3-b]pyridin-5-yl)oxy)-4-(4-((4′-chloro-5,5-dimethyl-3,4,5,6-tetrahydro-[1,1′-biphenyl]-2-yl)methyl)-3-methylpiperazin-1-yl)-N-((3-fluoro-5-nitro-4-(((1-(3-oxetanyl)piperidin-4-yl)methyl)amino)phenyl)sulfonyl) benzamide]: the IC50 in experiment [1] was 2.29 nM; in experiment [2], 743 nM; in experiment [3] (Homo sapiens, RS4-11) it was 5.8 nM.

Consider `C[C@@H]1CN(c2ccc(C(=O)NS(=O)(=O)c3ccc(NC[C@H]4COCCO4)c([N+](=O)[O-])c3)c(Oc3cnc4[nH]ccc4c3)c2)CCN1CC1=C(c2ccc(Cl)cc2)CC(C)(C)CC1` [Example 5, N-((4-((((S)-1,4-dioxan-2-yl)methyl)amino)-3-nitrophenyl)sulfonyl)-2-((1H-pyrrolo[2,3-b]pyridin-5-yl)oxy)-4-((R)-4-((4′-chloro-5,5-dimethyl-3,4,5,6-tetrahydro[1,1′-biphenyl]-2-yl)methyl)-3-methylpiperazin-1-yl) benzamide], for which the IC50 in experiment [1] was 1.54 nM; in experiment [2] it was over 1000 nM; in experiment [3] (Homo sapiens, RS4-11), 2.75 nM.

Turning to `C[C@@H]1CN(c2ccc(C(=O)NS(=O)(=O)c3cc(F)c(NC[C@H]4COCCO4)c([N+](=O)[O-])c3)c(Oc3cnc4[nH]ccc4c3)c2)CCN1CC1=C(c2ccc(Cl)cc2)CC(C)(C)CC1` [Example 6, N-((4-((((S)-1,4-dioxan-2-yl)methyl)amino)-3-fluoro-5-nitrophenyl)sulfonyl)-2-((1H-pyrrolo[2,3-b]pyridin-5-yl)oxy)-4-((R)-4-((4′-chloro-5,5-dimethyl-3,4,5,6-tetrahydro-[1,1′-biphenyl]-2-yl)methyl)-3-methylpiperazin-1-yl) benzamide], the IC50 is 0.9 nM in experiment [1]; over 1000 nM in experiment [2]; 2.37 nM in experiment [3] (Homo sapiens, RS4-11).

The values are drawn from US20230271959A1, “HETEROCYCLIC COMPOUND AS BCL-2 INHIBITOR” (Beijing Innocare Pharma Tech Co., Ltd., priority 2020, published 2023).
